Entries after “also recorded” stand apart in the source; their conditions may differ. Where a name gives a salt, the structure may show the parent alone. Read-outs that look alike come from different tables or passages of the source.
How the values were obtained:
RBL-2H3 cells [1] = assay: Antigen (DNP-BSA)-induced β-hexosaminidase release (degranulation) in IgE-sensitized RBL-2H3 cells; format: cell-based, rat; settings: for effect on antigenic degranulation / β-hexosaminidase release: DNP-BSA 5 ng/ml and 40 ng/ml, antagonist concentration not stated; for blockade of IgE-dependent activation and degranulation of metachromatic cells, agent alone: antigen-induced maximal degranulation (FIG. 21-28)
Excerpt: The rat basophilic cell line RBL-2H3 is an art recognized model for studying the activation of metachromatic cells through FcεRI (Oliver et al., “Signal transduction and cellular response in RBL-2H3 mast cells,” Prog. Allergy 42:185-245, 1988).
(§1) The below experiments used the rat basophilic cells RBL-2H3 commercially available from the American Type Culture Collection (ATCC; Manassas, Va.) under accession number CRL-2256. RBL-2H3 cells were passively sensitized with mouse IgE anti-dinitrophenyl conjugated to bovine serum albumin (DNP-BSA) monoclonal antibody for 22 hours, and then stimulated with DNP-BSA (antigen) to induce cell degranulation (FIG. 1).

neurokinin-1 receptor [2] = biological target: neurokinin-1 receptor (Homo sapiens, UniProt P25103); settings: cited from earlier work
neurokinin-1 receptor [3] = biological target: T1, neurokinin-1 receptor (Rattus norvegicus, UniProt P14600); settings: rat brain; cited from earlier work
T1 construct: from tissue; host or cells: rat brain

neurokinin-1 receptor [4] = biological target: T2, neurokinin-1 receptor (Cavia porcellus, UniProt P30547); settings: guinea pig ileum; cited from earlier work
T2 construct: pA2: 7.16 (guinea pig ileum); from tissue; host or cells: guinea pig ileum

NK-1 receptors = biological target: T3, NK-1 receptors (Homo sapiens, UniProt P25103); settings: CHO cells expressing NK-1 receptors, cited from earlier work
T3 construct: expressed in transfected cells; host or cells: CHO cells

RBL-2H3 cells [5] = assay: Calcium ionophore A23187-induced β-hexosaminidase release in RBL-2H3 cells; format: cell-based, rat
Experimental: RBL-2H3 cells were stimulated with the calcium ionophore A23187 (SigmaAldrich #C7522) in a concentration-dependent manner to induce metachromatic cell degranulation FIG. 10). […] The maximal inhibition is obtained at the concentration of 10 μM of L-703,606 (FIG. 11).

RBL-2H3 cells [6] = assay: Histamine immunoreactivity (intracellular histamine pools) in IgE-sensitized RBL-2H3 cells stimulated with DNP-BSA; format: cell-based, rat; settings: pretreatment 10 μM; DNP-BSA 40 ng/ml
Excerpt: Data analysis using the macro built under the Image-Pro Plus platform enabled the representation of the frequency distribution of the maximal intensity for histamine immunoreactivity into RBL-2H3 cells. We arbitrarily divided basophils into six subgroups according to the range of maximal fluorescence intensity detected into the cells, e.g., 300 to 499 IAU (intensity arbitrary unit) or 900-1100 IAU. […] Therefore, frequency distribution analyses confirmed the β-hexosaminidase data by showing that blocking NK-1 receptors inhibits FcεRI clustering-induced metachromatic cell degranulation.

RBL-2H3 cells [7] = assay: Intracellular calcium changes (Fluo-3 AM, epifluorescence microscopy) in RBL-2H3 cells; format: cell-based, rat; settings: Fluo-3 AM loaded cells (FIG. 12)
RBL-2H3 cells [8] = assay: Cell viability by trypan blue exclusion test in RBL-2H3 cells; format: cell-based, rat; settings: IgE-sensitized RBL-2H3 cells stimulated with DNP-BSA (FIG. 3)
Experimental: as §1, with “1). To address the issue of an autocrine tachykinergic regulation of metachromatic cell degranulation in response to antigenic activation, IgE-sensitized RBL-2H3 cells were pre-treated with a selective NK-1 receptor antagonist prior to antigen stimulation.” for “1).”

[9] = antagonist 10 μM, DNP-BSA 5 ng/ml
[10] = antagonist 10 μM, DNP-BSA 40 ng/ml

Sequence of neurokinin-1 receptor (Homo sapiens, UniProt P25103) (P25103 whole entry): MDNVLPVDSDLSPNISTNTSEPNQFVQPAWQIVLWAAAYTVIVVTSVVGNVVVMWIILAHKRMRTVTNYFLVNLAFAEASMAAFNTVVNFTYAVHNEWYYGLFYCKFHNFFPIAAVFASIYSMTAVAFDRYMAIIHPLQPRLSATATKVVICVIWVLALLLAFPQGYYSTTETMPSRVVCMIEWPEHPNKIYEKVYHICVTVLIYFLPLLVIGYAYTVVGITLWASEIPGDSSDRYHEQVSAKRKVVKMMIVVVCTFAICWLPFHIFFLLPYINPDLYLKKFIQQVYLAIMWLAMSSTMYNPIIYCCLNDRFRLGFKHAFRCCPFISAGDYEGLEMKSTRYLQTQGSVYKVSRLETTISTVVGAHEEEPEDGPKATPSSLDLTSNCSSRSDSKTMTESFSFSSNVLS
T3 sequence (P25103 whole entry): as above
T1 sequence (P14600 whole entry): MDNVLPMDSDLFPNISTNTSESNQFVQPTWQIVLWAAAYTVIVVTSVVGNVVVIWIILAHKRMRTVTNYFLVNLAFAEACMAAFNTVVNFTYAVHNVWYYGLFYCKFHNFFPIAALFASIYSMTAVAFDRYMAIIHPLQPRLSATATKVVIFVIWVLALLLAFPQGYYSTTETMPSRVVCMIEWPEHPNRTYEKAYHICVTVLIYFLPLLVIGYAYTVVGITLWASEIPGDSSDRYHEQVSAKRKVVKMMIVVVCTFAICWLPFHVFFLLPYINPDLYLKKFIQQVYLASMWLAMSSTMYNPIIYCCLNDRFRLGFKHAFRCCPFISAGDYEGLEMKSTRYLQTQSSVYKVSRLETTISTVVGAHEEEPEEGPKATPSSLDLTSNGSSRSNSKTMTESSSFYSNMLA
T2 sequence (P30547 whole entry): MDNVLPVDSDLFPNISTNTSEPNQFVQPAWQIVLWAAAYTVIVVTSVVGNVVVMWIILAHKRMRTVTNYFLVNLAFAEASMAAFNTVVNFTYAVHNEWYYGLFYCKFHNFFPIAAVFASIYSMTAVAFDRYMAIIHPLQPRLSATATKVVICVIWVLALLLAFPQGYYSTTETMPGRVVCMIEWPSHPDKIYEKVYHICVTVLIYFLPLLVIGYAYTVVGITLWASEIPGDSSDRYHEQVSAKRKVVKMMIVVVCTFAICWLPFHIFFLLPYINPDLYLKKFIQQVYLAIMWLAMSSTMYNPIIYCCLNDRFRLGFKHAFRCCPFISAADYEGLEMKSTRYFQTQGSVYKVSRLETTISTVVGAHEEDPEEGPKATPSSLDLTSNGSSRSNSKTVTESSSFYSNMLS

Compound: C[C@@H]1C[C@H]2[C@@H]3CCC4=CC(=O)C=C[C@]4(C)[C@@]3(F)[C@@H](O)C[C@]2(C)[C@@]1(O)C(=O)CO [dexamethasone]
- reduction of maximal degranulation (RBL-2H3 cells [1]; dexamethasone 10^−8 M alone, antigen 40 ng/ml): 50%

Compound: [D-Arg^1, D-Phe^5, D- Trp^7,9, Leu^11] substance P [Antagonist D]
- Affinity (selectivity in words) (neurokinin-1 receptor [2]): Non-selective
- effect on antigenic degranulation / β-hexosaminidase release (RBL-2H3 cells [1]): did not alter; also recorded: lack of inhibition

Compound: Cl.O=c1cc(N2CCOCC2)oc2c(-c3ccccc3)cccc12 [LY-294,002]
- blockade of IgE-dependent activation and degranulation of metachromatic cells, agent alone (RBL-2H3 cells [1]): potent blocker

Compound: COc1ccccc1CC(=N)N1C[C@@H]2C(=O)CCC(c3ccccc3)(c3ccccc3)[C@@H]2C1 [RP 67580, (3aR,7aR)-Octahydro-2-[1-imino-2-(2-methoxyphenyl)ethyl]-7,7-diphenyl-4H-isoindol]
- IC50 (neurokinin-1 receptor [3]): 10 nM
- decrease of degranulation induced by 5 ng/ml DNP-BSA (RBL-2H3 cells [1]; [9]): ~50%
- effect on maximal antigenic degranulation (RBL-2H3 cells [1]; [10]): no significant effect
- pA2 (neurokinin-1 receptor [4]): 7.16

Compound: CCCCCCCCc1ccc(CCC(N)(CO)CO)cc1.Cl [FTY720]
- blockade of IgE-dependent activation and degranulation of metachromatic cells, agent alone (RBL-2H3 cells [1]): potent blocker

Compound: C=CC[C@@H]1/C=C(\C)C[C@H](C)C[C@H](OC)[C@H]2O[C@@](O)(C(=O)C(=O)N3CCCC[C@H]3C(=O)O[C@H](/C(C)=C/[C@@H]3CC[C@@H](O)[C@H](OC)C3)[C@H](C)[C@@H](O)CC1=O)[C@H](C)C[C@@H]2OC [Tacrolimus]
- blockade of IgE-dependent activation and degranulation of metachromatic cells, agent alone (RBL-2H3 cells [1]): potent blocker

Compound: Oc1ccc(-c2nc(-c3ccncc3)c(-c3ccc(F)cc3)[nH]2)cc1 [SB202190]
- blockade of IgE-dependent activation and degranulation of metachromatic cells, agent alone (RBL-2H3 cells [1]): potent blocker

Compound: Ic1ccccc1CNC1C2CCN(CC2)C1C(c1ccccc1)c1ccccc1.O=C(O)C(=O)O [L-703,606, cis-2-(Diphenylmethel)-N-([2-iodophenyl]methyl)-1-azabicyclo (2.2.2) octan-3-amine]
- IC50 (NK-1 receptors): 2 nM
- Kd (neurokinin-1 receptor [2]; 35% sites): 1.5 nM
- Kd (neurokinin-1 receptor [2]; 65% sites): 0.04 nM
- concentration giving maximal inhibition of calcium ionophore-induced degranulation (RBL-2H3 cells [5]; calcium ionophore A23187): 10 µM
- inhibition of calcium ionophore-induced activation and degranulation (RBL-2H3 cells [5]; calcium ionophore A23187 (FIG. 11)): inhibit, in a concentration-dependent manner
- depletion of histamine intracellular pools (RBL-2H3 cells [6]): mostly abolished
- effect on calcium ionophore-induced calcium signals (RBL-2H3 cells [7]): unlikely to be attributable to inhibition of calcium ionophore-induced extracellular calcium signals
- cell viability (trypan blue exclusion) (RBL-2H3 cells [8]): did not alter cell viability
- cell viability (trypan blue exclusion) (RBL-2H3 cells [8]; listed as L-703,606 oxalate salt): not attributable to cell death
- effect on antigen-induced maximal degranulation (RBL-2H3 cells [1]; L-703,606 5 μM alone, antigen 40 ng/ml): weak effect
- effect on inhibition by Tacrolimus of antigen-induced maximal cell degranulation (RBL-2H3 cells [1]; L-703,606 10 μM, Tacrolimus 0.01 μM): potentiates
- effect on inhibition by cyclosporin A of antigen-induced maximal cell degranulation (RBL-2H3 cells [1]; L-703,606 10 μM, cyclosporin A 0.1 μM): potentiates
- effect on inhibition by FTY720 of antigen-induced maximal cell degranulation (RBL-2H3 cells [1]; L-703,606 1, 5 and 10 μM, FTY720 5 μM): potentiates
- effect on inhibition by BAY 61-3606 of antigen-induced maximal cell degranulation (RBL-2H3 cells [1]; L-703,606 5 and 10 μM, BAY 61-3606 100 and 250 nM): potentiates
- effect on inhibition by LY-294,002 of antigen-induced maximal cell degranulation (RBL-2H3 cells [1]; L-703,606 5 and 10 μM, LY-294,002 1 and 10 μM): potentiates
- effect on inhibition by PD98059 of antigen-induced maximal cell degranulation (RBL-2H3 cells [1]; L-703,606 5 and 10 μM, PD98059 5, 10 and 25 μM): potentiates
- effect on inhibition by PP1 of antigen-induced maximal cell degranulation (RBL-2H3 cells [1]; L-703,606 5 and 10 μM, PP1 1 and 5 μM): potentiates
- effect on inhibition by SB202190 of antigen-induced maximal cell degranulation (RBL-2H3 cells [1]; L-703,606 5 and 10 μM, SB202190 10 and 25 μM): potentiates
- effect on antigen-induced 50% of cell degranulation (RBL-2H3 cells [1]; [9]): completely abolished
- reduction of maximal antigenic degranulation response (RBL-2H3 cells [1]; [10]): ~50%
- inhibition of antigen-induced β-hexosaminidase release (RBL-2H3 cells [1]; antagonist 1 to 10 μM, DNP-BSA 5 ng/ml or 40 ng/ml): concentration-dependent inhibition
- effect on basal release of β-hexosaminidase (RBL-2H3 cells [1]; no antigen, data not shown): did not change
- most efficient inhibitory concentration for β-hexosaminidase release (RBL-2H3 cells [1]; range tested 1 to 10 μM): 10 µM

Compound: COc1ccc(-c2cc3nccn3c(Nc3ncccc3C(N)=O)n2)cc1OC [BAY 61-3606]
- blockade of IgE-dependent activation and degranulation of metachromatic cells, agent alone (RBL-2H3 cells [1]): potent blocker

Compound: COc1cccc(-c2cc(=O)c3ccccc3o2)c1N [PD98059]
- blockade of IgE-dependent activation and degranulation of metachromatic cells, agent alone (RBL-2H3 cells [1]): potent blocker

Compound: COc1cc(C(=O)N2CC[C@](CCN3CCC(C(N)=O)(c4ccccc4)CC3)(c3ccc(Cl)c(Cl)c3)C2)cc(OC)c1OC [MDL 105,212]
- effect on antigenic degranulation / β-hexosaminidase release (RBL-2H3 cells [1]): lack of inhibition
- effect on cell degranulation induced by 40 ng/ml DNP-BSA (RBL-2H3 cells [1]; antagonist 1 μM (but not 10 μM), DNP-BSA 40 ng/ml): significantly increased
- effect on antigen concentration leading to 50% of maximal degranulation (RBL-2H3 cells [1]; antagonist at both 1 μM and 10 μM, DNP-BSA 5 ng/ml): had no effect

Compound: FC(F)(F)c1cc(CO[C@@H]2CCCN[C@@H]2c2ccccc2)cc(C(F)(F)F)c1 [L-733,060, ((2S,3S)-3-[[3,5-bis (Trifluoromethyl)phenyl]methoxy]-2-phenylpiperidine hydrochloride]
- IC50 (NK-1 receptors; read-out: IC50): 1 nM
- effect on antigen-induced 50% of cell degranulation (RBL-2H3 cells [1]; [9]): completely abolished
- reduction of maximal antigenic degranulation response (RBL-2H3 cells [1]; [10]): ~55%
